From patent US7557103B2, “Imidazopyridazine compounds” (Eli Lilly and Company, priority 2005, dated 2009)
Changes are numbered by the printed parent chain. Read-outs that look alike come from different tables or passages of the source.

Experiments:
in vivo = conditions: male, Sprague-Dawley, rat, iv, 3 mg/kg
Experimental: (§1) To test for volume of distribution, Male Sprague Dawley rats (N=3) are administered a single 3 mg/kg intravenous dose of compound. Multiple plasma samples are collected at time points from 0.08 to 24 hours post-dose. The plasma samples are analyzed by LC/MS/MS to determine the plasma concentrations. Plasma pharmacokinetic calculations are performed to determine the pharmacokinetic parameters including Vdist and plasma clearance (Clp).

[1] = male, Sprague-Dawley, in vivo, iv, 3 mg/kg
Experimental: as §1

[2] = Rat intravenous pharmacokinetics (volume of distribution, plasma clearance); conditions: for rat Vdist: single intravenous dose (3 mg/kg); for clearance: male, Sprague-Dawley, plasma, iv, 3 mg/kg
Experimental: as §1

human CRF1 = biological target: T1, human CRF1 (Homo sapiens, UniProt P34998); assay: CRF1 filter binding assay; conditions: HEK-hCRF1 membranes, 125I-sauvagine; read-out: Ki (inhibition constant)
T1 construct: expressed in transfected cells; membranes
T1 sequence (P34998 24-415): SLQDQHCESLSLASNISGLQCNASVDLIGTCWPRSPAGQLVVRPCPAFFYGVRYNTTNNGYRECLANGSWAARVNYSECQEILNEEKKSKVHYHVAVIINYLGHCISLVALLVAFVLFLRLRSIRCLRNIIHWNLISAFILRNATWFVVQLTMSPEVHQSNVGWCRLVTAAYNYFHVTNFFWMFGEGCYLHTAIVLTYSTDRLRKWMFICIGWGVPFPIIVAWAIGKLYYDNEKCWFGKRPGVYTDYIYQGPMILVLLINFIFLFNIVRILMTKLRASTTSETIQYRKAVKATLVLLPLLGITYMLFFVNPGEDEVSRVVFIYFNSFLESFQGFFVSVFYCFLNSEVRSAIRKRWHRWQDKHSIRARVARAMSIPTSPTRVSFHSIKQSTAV
Experimental: The limitations of plasmid-based human CRF1 expression, in terms of generating a recombinant cell line with sufficient receptor density to develop a binding assay, are overcome by using a Phoenix retroviral expression system licensed from Stanford. The stable HEK-hCRF1 cell line is used to prepare membranes and binding reactions (200 μl) are set up as follows: 50 μl of ^125I-sauvagine (0.2 nM final), 50 μl compound and 100 μL CRF1 membrane (25 μg/reaction). The reactions are incubated at room temperature for 2 hours and then terminated by filtration through pre-treated FB Millipore glass fiber filter plates (96 well). The plates are wash twice with ice-cold assay buffer (50 mM tris, 12.5 mM NaCl, 1 mM EDTA, 10 mM MgCl2, 0.05% BSA, pH 7.2), air dried over night and counted with 100 μl Microscint 40 in a MicroBeta counter. Non-specific binding (NSB) is determined in the presence of 0.5 μM non-labeled sauvagine. Triplicate determinations are typically run and the median data points plotted by Graph Pad Prism.

human CRF2 = biological target: T2, human CRF2 (Homo sapiens, UniProt Q13324); assay: CRF2 filter binding assay; conditions: 50 μM compound, HEK-hCRF2 membranes, 125I-sauvagine; read-out: percent inhibition at 50 μM
T2 construct: expressed in transfected cells; membranes
T2 sequence (Q13324 1-411): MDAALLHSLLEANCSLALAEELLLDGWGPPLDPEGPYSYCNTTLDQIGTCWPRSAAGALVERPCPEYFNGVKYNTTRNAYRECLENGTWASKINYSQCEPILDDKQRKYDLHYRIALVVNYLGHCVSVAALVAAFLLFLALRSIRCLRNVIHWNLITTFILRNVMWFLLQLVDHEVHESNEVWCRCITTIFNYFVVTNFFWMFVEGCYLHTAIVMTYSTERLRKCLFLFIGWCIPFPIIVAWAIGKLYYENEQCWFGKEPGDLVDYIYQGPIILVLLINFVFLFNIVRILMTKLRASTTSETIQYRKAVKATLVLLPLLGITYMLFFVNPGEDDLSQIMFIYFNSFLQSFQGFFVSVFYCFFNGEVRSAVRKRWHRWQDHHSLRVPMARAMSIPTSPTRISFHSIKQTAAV
Experimental: The limitations of plasmid-based human CRF2 expression, in terms of generating a recombinant cell line with sufficient receptor density to develop a binding assay, are overcome by using a Phoenix retroviral expression system licensed from Stanford. The stable HEK-hCRF2 cell line is used to prepare membranes and binding reactions (200 A1) are set up as follows: 50 ul of ^125I-sauvagine (0.2 nM final concentration), 501 compound and 100 μl CRF2 membrane (25 μg/reaction). The reactions are incubated at room temperature for 2 hours and then terminated by filtration through pre-treated FB Millipore glass fiber filter plates (96 well). The plates are washed twice with ice-cold assay buffer (50 mM tris, 12.5 mM NaCl, 1 mM EDTA, 10 mM MgCl2, 0.05% BSA, pH 7.2), air dried over night and counted with 100 μl Microscint 40 in a MicroBeta counter. Non-specific binding (NSB) is determined in the presence of 0.5 μM non-labeled sauvagine. Alternatively, compounds are evaluated using a Scintillation Proximity assay. […] Bound radioactivity is assessed using a Wallac Trilux scintillation counter. Binding is assessed typically using triplicate determinations and the median data points plotted by Graph Pad Prism. […]

[3] = biological target: T3, binding of ^125I-sauvagine to the cerebellum (Rattus norvegicus, UniProt P35353); assay: In vivo potency assessment using ex vivo binding; conditions: oral route, ex vivo binding of 125I-sauvagine to the cerebellum
T3 construct: from tissue; host or cells: rat cerebellum
T3 sequence (P35353 24-415): T1 sequence (P34998 24-415) with H6R, S9N, A13T, I16V, M153V, G163A, I209V, Y229H, H356R
Experimental: To assess in vivo potency, a compound of the present invention is evaluated using ex vivo binding. Using the procedures as provided in D. R. Gehlert et al., EJP 509: 145-153 (2005), a compound is administered to a rat via the oral route.

Q: Which clearance (in vivo) does the source give for CCC(CC)c1cc(C)nn2c(-c3sc4ccccc4c3C)c(C)nc12 [Example 2, 8-(1-ethyl-propyl)-2,6-dimethyl-3-(3-methyl-benzo[b]thiophen-2-yl)-imidazo[1,2-b]pyridazine] here?
A: Its clearance is 12 mL/min/kg.

Q: What about the “rat Vdist” value [1] of the same compound?
A: The value was 10 L/kg.

Q: With CCCN(CCC)c1cc(C)nc2c(-c3cnc(N(C)C)cc3C)c(C)nn12 [NBI30775] as the compound, how does the “rat Vdist” value [2] read?
A: The value was 76 L/kg.

Q: For CCC(CC)c1cc(C)nn2c(-c3sc4ccc(F)cc4c3C)c(C)nc12 [Example 1, 8-(1-ethyl-propyl)-2,6-dimethyl-3-(5-fluoro-3-methyl-benzo[b]thiophen-2-yl)-imidazo[1,2-b]pyridazine], which Ki (human CRF1) is on record?
A: The Ki was 16.3 nM.

Q: And the clearance [2]?
A: Its clearance is 9 mL/min/kg.

Q: What about the “rat Vdist” value [2] of the same compound?
A: Its value is 8 L/kg.

Q: Which results are given for CCC(CC)c1cc(C)nn2c(-c3c(C)oc4c(C(C)(C)O)cccc34)c(C)nc12 [Example 88, 2-{3-[8-(1-ethyl-propyl)-2,6-dimethyl-imidazo[1,2-b]pyridazin-3-yl]-2-methyl-benzofuran-7-yl}-propan-2-ol]?
A: Ki (human CRF1): 19.2 ± 4.8 nM; inhibition at 50 µM (human CRF2): 27 ± 3%

Q: What does the source list for CCC(CC)c1cc(C)nn2c(-c3cc4ccc(Cl)cc4n3C)c(C)nc12 [Example 34, 3-(6-chloro-1-methyl-1H-indol-2-yl)-8-(1-ethyl-propyl)-2,6-dimethyl-imidazo[1,2-b]pyridazine]?
A: clearance (in vivo): 14 mL/min/kg; rat Vdist [1]: 15 L/kg; ED50 [3]: 5.5 mg/kg

Q: With CCC(CC)c1cc(C)nn2c(-c3cc4cc(F)ccc4n3C)c(C)nc12 [Example 8, 8-(1-ethyl-propyl)-2,6-dimethyl-3-(5-fluoro-1-methyl-indol-2-yl)-imidazo[1,2-b]pyridazine] as the compound, how does the clearance (in vivo) read?
A: The clearance was 29 mL/min/kg.

Q: And the “rat Vdist” value [1]?
A: The value was 17 L/kg.

Q: What does the source list for CCCCN(CC)c1nc(C)nc2c1c(C)cn2-c1c(C)cc(C)cc1C [CP154526]?
A: clearance [2]: 83 mL/min/kg; rat Vdist [2]: 114 L/kg
